Literature values as cited in US20150174247A1, “ORAL PHARMACEUTICAL PREPARATION OF ARIPIPRAZOLE” (MARUISHI PHARMACEUTICAL CO., LTD., priority 2012, published 2015).

## O=C1CCc2ccc(OCCCCN3CCN(c4cccc(Cl)c4Cl)CC3)cc2N1 [aripiprazole, 7-{4-[4-(2,3-dichlorophenyl)-1-piperazinyl]-butoxy}-3,4-dihydro-2(1H)-quinolinone]
Acidic range (pH 4.5 or less)
  solubility in acidic range: highly soluble
Neutral (pH 5) or higher pH range
  solubility in neutral or higher pH range: less soluble
